Values joined by “and” are separate entries in the source; they are usually repeats but may differ in a detail not shown here. Equal entries are not always repeated. Marks after values point to notes of the source that are not given here.

Assay type in all cases: in vivo, mouse
For data set [1], the system named is choline acetyl transferase (ChAT) immunoreactive cells. Nature of the data set: Anti-ChAT immunofluorescence, cholinergic neuron counts. The following applies: for Fewer cholinergic neurons than control: SG-fed; for Cholinergic neurons, change: ventral horn lumbar spinal cord, SG-fed vs control. Here is the method:
(§1) Tissue-mounted slides were processed for fluorescence microscopy as follows: Sections were rinsed in coplin jars for 45 minutes at room temperature (RT) in three changes of PBS. Sections were then incubated at RT for 30 minutes in a blocking permeabilization solution made of 5% normal goat serum (NGS), 5% normal rabbit serum (NRS) or 5% BlokHen II (Ayes Labs, Inc., Tigard, Oreg.), 0.05% Triton X-100 and PBS. Subsequently, the blocking solution was tipped off and the slides were rinsed in PBS for 2 minutes. Sections were then incubated overnight in a humidified chamber at 4° C. with a PBS buffered solution that contained 1% NGS or 1% NRS, 1% bovine serum albumin (BSA) and one of the following primary antibodies: (a) rabbit anti-human/mouse ATF-3 (H-90) IgG (polyclonal, 1:500; Santa Cruz Biotechnology, Inc., Santa Cruz, Calif.), (b) anti-activated caspase-3 IgG (monoclonal, 1:250; Chemicon International, Temecula, Calif.) (see FIG. 9), (c) goat antihuman/mouse choline acetyl transferase (ChAT) IgG (polyclonal, 1:100; Chemicon International, Temecula, Calif.) (see FIG. 6), (d) rabbit anti-mouse glial fibrillary acidic protein IgG (polyclonal, 1:250; GeneTex Inc., San Antonio, Tex.) (see FIG. 7), (e) rabbit antihuman/mouse ionized calcium binding adaptor molecule 1 (IBA-1) IgG (polyclonal, 1:500; Wako Pure Chemical Industries, Ltd, Richmond, Va.), (f) mouse anti-human/mouse clone AT8 PHF-1 Tau (monoclonal, 1:200; Pierce Biotechnology Inc., Rockford, Ill.), (g) rabbit anti-human/mouse TAR DNA-binding protein 43 (TDP43) (1:100; ProteinTech Group Inc., Chicago, Ill.) (See FIG. 14), (h) chicken anti-human/mouse β-tubulin 3 (TuJ1 antigen) (polyclonal, 1:100, Ayes Labs, Inc., Tigard, Oreg.), (i) rabbit anti-mouse tyrosine hydroxylase (polyclonal, 1:500, Chemicon International, Temecula, Calif. or polyclonal 1:1000, Affinity BioReagents, Golden, Colo.) (FIG. 10), (j) rabbit anti human/mouse anti-pJunscr73 IgG (polyclonal, 1:200; Chemicon International, Temecula, Calif.), (k) rabbit anti human/mouse anti-HSP-70 IgG (polyclonal, 1:200; Chemicon International, Temecula, Calif.), or (1) rabbit anti human/mouse anti-HSP-25 IgG (polyclonal, 1:100; Chemicon International, Temecula, Calif.). In each experiment, additional slides were incubated with the primary antibody and the secondary antibody omitted or with secondary antibody and primary antibody omitted to test for nonspecific staining. Where appropriate, positive control slides (Alzheimer's disease patient entorhinal cortex, obtained from Drs. Claudia Schwab and Patrick McGeer of the Kinsmen Laboratory, University of British Columbia, Vancouver, BC, Canada) were also processed as above for comparison. […]

The subject of data set [2] is Heat shock protein-70. Nature of the data set: Anti-Hsp-70 immunofluorescence. The conditions noted are these: for Anti-Hsp-70 (VHLsc), change: ventral horn lumbar spinal cord; for Anti-Hsp-70 (VHLsc), change / Anti-Hsp-70 (VHTsc): SG-fed vs control; for Anti-Hsp-70 (VHTsc): ventral horn thoracic spinal cord. Here is the method: as §1, with “comparison. Following overnight incubation with the primary antibody, slides were rinsed for 45 minutes at RT in three changes of PBS. Immediately after, the slides were incubated in black chambers that excluded light for 1 hour at RT with the secondary antibody solutions containing 5% NGS or 5% NRS and fluorophore conjugated antibodies: AlexaFluor 568 goat anti-rabbit or rabbit anti-goat IgG (monoclonal, 1:250, absorption: 578 nm, emission 603 nm; Molecular Probes, Eugene, Oreg.), AlexaFluor 546 goat antirabbit or rabbit anti-goat IgG (monoclonal; 1:250, absorption 556 nm, emission 573 nm; Molecular Probes, Eugene, Oreg.) or fluorescein isothiocyanate (FITC) goat anti-rabbit IgG (polyclonal, 1:500, absorption: 494 nm, emission: 518 nm; Sigma, Saint Louis, Mo.). The secondary antibody solution was tipped off and slides were rinsed for 15 minutes in three changes of PBS. Tissue sections were cover-slipped with a 4′6 diamidino-2-phenylindole (DAPI) fluorescent mounting media (Vectashield, absorption: 360 nm, emission: 460 nm, Vector Laboratories, Burlington, ON, Canada) in order to label the nuclei and stored at 4° C. in dark slide boxes to retard bleaching of the fluorescent labels.” for “comparison.”

For data set [3], the system named is Phosphorylated TDP-43 aggregates. Nature of the data set: TDP-43 immunofluorescence. On the set-up: key to Phosphorylated TDP-43 aggregates: − = not present; + = present. The following applies: for Phosphorylated TDP-43 aggregates: SG-fed. Here is the method:
as §1

[4] abbreviates: SG-fed group over time (35 to 52 wk).

As for `CC[C@H](/C=C/[C@@H](C)[C@H]1CC[C@H]2[C@@H]3CC=C4C[C@@H](O[C@@H]5O[C@H](CO)[C@@H](O)[C@H](O)[C@H]5O)CC[C@]4(C)[C@H]3CC[C@]12C)C(C)C` [SG, Stigmasterol β-D-Glucopyranoside], the “Fewer cholinergic neurons than control” value came to 18% in data set [1] (35 weeks) and 32% in data set [1] (52 weeks). Also, the “Cholinergic neurons, change” value in data set [1] (Time-point 1 (35 wk)) was “Cholinergic neurons (−18%)”; in data set [1] (Time-point 2 (52 wk)) it was “Cholinergic neurons (−32%)”. Besides, the “Anti-Hsp-70 Lsc over time” value in data set [2] (setting [4]) is “Anti-Hsp-70 Lsc (SG-fed group over time) (ns, p = 0.1223)”. The “Anti-Hsp-70 Tsc over time” value in data set [2] (setting [4]) is “Anti-Hsp-70 Tsc (SG-fed group over time) (ns, p = 0.8319)”. Besides, the “Anti-Hsp-70 (VHLsc), change” value is given as “Anti-Hsp-70: +1036%***” in data set [2] (Time-point 1 (35 wk)) and “Anti-Hsp-70: +425%*” in data set [2] (Time-point 2 (52 wk)). Moreover, the “Anti-Hsp-70 (VHTsc)” value in data set [2] (Time-point 1 (35 wk)) is on record as “Anti-Hsp-70: (ns, p = 0.9697)”; in data set [2] (Time-point 2 (52 wk)), “Anti-Hsp-70: (ns, p = 0.2793)”. The “Phosphorylated TDP-43 aggregates” value in data set [3] (Time-point 1 (35 wk)) is “No abnormal translocation of TDP-43 was observed and −”; in data set [3] (Time-point 2 (52 wk)) it was “+”. The “TDP-43 pathology, incidence in SG-fed group” value in data set [3] (Time-point 2 (52 wk), lumbar spinal cord) was “Two of eight and 2/8”. Further, the “Pathologic phosphorylated TDP-43-containing aggregates, quantification” value in data set [3] (lumbar spinal cord, SG-fed animals) was “increased”.

These data come from patent publication US9573972B2, “Nurotoxic sterol glycosides” (priority 2008, dated 2017).
